Assay results as given in US12303845B2, “Method for crystallization of active pharmaceutical ingredients” (Nanoform Finland Oyj, priority 2023, dated 2025).

Columns and labels:
Type in all cases: physicochemical
[1] = Crystallization of amorphous nanosized API in aqueous polymer solution, polymorph/crystallinity by XRD; design: key to Polymorph: bulk = same as the API before conversion to amorphous nanoparticles
Experimental: XRPD measurements were carried out using the Malvern PANalytical Empyrean X-ray diffractometer equipped with a Cu Kα (1.54 Å) source, MultiCore optics and a solid-state PIXcel3D detector. By using Kapton tape the samples were attached onto aluminum or polycrystalline silicon sample holders. Dried slurries were measured without further sample preparation under Kapton tape and suspensions were filtered, dried, and filters were attached with double sided tape. The samples were measured in the reflection geometry in a spinning measurement stage. The measurement range was 5-40 (°2θ). The step size and time per step values were varied depending on the counts per second obtained.
Determination of crystallization of API nanoparticles was evaluated via kinetic study of suspension. Accordingly, XRD measurement was done for suspension in different time points.
Amorphous API nanoparticles (budesonide, ezetimibe, ceritinib, and apalutamide) were added as dry powders to aqueous polymer solutions. The mixtures were either • (i) mixed with a magnetic stirrer and ultrasonicated until API was completely surrounded by water (wetted). The stirring was continued for 16-24 h at ambient temperature or • (ii) blended with a metal spatula and allowed to stay at room temperature for 18-24 h.
The suspensions formed were analyzed after 18-24 h. SEM and XRD samples were prepared as described above.

[2] = SEM of crystallized suspensions and dried products (crystal size grade, particle size); design: key: 5 = nanocrystals; 1 = large crystals
Experimental: SEM images were captured using the Zeiss Sigma 300 VP SEM instruments. Samples were dispersed into water and filtered with 0.1 μm filter. Filters were dried, transferred to SEM sample holders, and coated with a 5 nm thick layer of platinum. Amorphous API nanoparticles (budesonide, ezetimibe, ceritinib, and apalutamide) were added as dry powders to aqueous polymer solutions. The mixtures were either • (i) mixed with a magnetic stirrer and ultrasonicated until API was completely surrounded by water (wetted). The stirring was continued for 16-24 h at ambient temperature or • (ii) blended with a metal spatula and allowed to stay at room temperature for 18-24 h. The suspensions formed were analyzed after 18-24 h. SEM and XRD samples were prepared as described above. Suspension comprising nanosized APIs prepared as shown above were dried in a vacuum desiccator overnight. The solid materials were grounded to produce powders. The powders were analyzed on XRD and SEM. The powders comprising nanosized APIs were used in the stability, permeability, and dissolution tests as described above.

[3] = Stability tests of solid material (SEM, XRD, HPLC); conditions: materials prepared according to the disclosure; up to T30; crystallinity confirmed by XRD
Experimental: Solid material was weighted in separate vials (approx. 150 mg of material in each) and transferred to stability chambers. Three conditions were applied: ambient conditions (material in closed vial at RT), 25° C./65% RH and 40° C./75% RH. Material was analyzed at T0 as freshly prepared, T7 ([…]), T14 ([…]) and T30 (30 d) after the initiation of stability studies. SEM, XRD and dissolution/permeability studies were used to evaluate the crystallinity, particle size/morphology and performance of the material.

[4] = HPMC 1 wt.-%, SLS 0.2 wt.-%, mAPI 25 mg/g
[5] = HPMC 1 wt.-%, no SLS, mAPI 25 mg/g
[6] = HPMC 2.5 wt.-%, SLS 0.2 wt.-%, mAPI 25 mg/g
[7] = HPMC 2.5 wt.-%, no SLS, mAPI 25 mg/g
[8] = HPMC 5 wt.-%, SLS 0.2 wt.-%, mAPI 25 mg/g
[9] = HPMC 5 wt.-%, SLS 0.2 wt.-%, mAPI 100 mg/g
[10] = HPMC 5 wt.-%, SLS 0.2 wt.-%, mAPI 150 mg/g
[11] = HPMC 5 wt.-%, no SLS, mAPI 25 mg/g
[12] = HPMC 5 wt.-%, no SLS, mAPI 100 mg/g
[13] = HPMC 5 wt.-%, no SLS, mAPI 150 mg/g
[14] = PVP K30 1 wt.-%, no SLS, mAPI 25 mg/g
[15] = PVP K30 2.5 wt.-%, no SLS, mAPI 25 mg/g
[16] = PVP K30 5 wt.-%, no SLS, mAPI 25 mg/g
[17] = PVPVA 1 wt.-%, SLS 0.2 wt.-%, mAPI 25 mg/g
[18] = PVPVA 1 wt.-%, no SLS, mAPI 25 mg/g polymer solution
[19] = PVPVA 2.5 wt.-%, SLS 0.2 wt.-%, mAPI 25 mg/g
[20] = PVPVA 2.5 wt.-%, no SLS, mAPI 25 mg/g
[21] = PVPVA 5 wt.-%, SLS 0.2 wt.-%, mAPI 25 mg/g
[22] = PVPVA 5 wt.-%, no SLS, mAPI 25 mg/g
[23] = PVPVA 15 wt.-%, SLS 0.2 wt.-%, mAPI 150 mg/g
[24] = PVPVA 15 wt.-%, no SLS, mAPI 150 mg/g
[25] = PVPVA 20 wt.-%, no SLS, mAPI 200 mg/g
[26] = PVPVA 25 wt.-%, SLS 0.2 wt.-%, mAPI 250 mg/g
[27] = PVPVA 25 wt.-%, no SLS, mAPI 250 mg/g
[28] = PVPVA 45 wt.-%, no SLS, mAPI 450 mg/g
[29] = Poloxamer 407 1 wt.-%, no SLS, mAPI 25 mg/g
[30] = Poloxamer 407 2.5 wt.-%, no SLS, mAPI 25 mg/g
[31] = Poloxamer 407 5 wt.-%, no SLS, mAPI 25 mg/g

SMILES: CCCC1O[C@@H]2C[C@H]3[C@@H]4CCC5=CC(=O)C=C[C@]5(C)[C@H]4[C@@H](O)C[C@]3(C)[C@]2(C(=O)CO)O1 (stereo partly drawn) [Bude, budesonide]
- Polymorph [1, 4]: bulk
- Polymorph [1, 5]: bulk
- Polymorph [1, 6]: bulk
- Polymorph [1, 7]: bulk
- Polymorph [1, 8]: bulk
- Polymorph [1, 9]: bulk
- Polymorph [1, 10]: bulk
- Polymorph [1, 11]: bulk
- Polymorph [1, 12]: bulk
- Polymorph [1, 13]: bulk
- Polymorph [1, 14]: bulk
- Polymorph [1, 15]: bulk
- Polymorph [1, 16]: bulk
- Polymorph [1, 17]: bulk
- Polymorph [1, 18]: bulk
- Polymorph [1, 19]: bulk
- Polymorph [1, 20]: bulk
- Polymorph [1, 21]: bulk
- Polymorph [1, 22]: bulk
- Polymorph [1, 23]: bulk
- Polymorph [1, 24]: bulk
- Polymorph [1, 25]: bulk
- Polymorph [1, 26]: bulk
- Polymorph [1, 27]: bulk
- Polymorph [1, 28]: bulk
- Polymorph [1, 29]: bulk
- Polymorph [1, 30]: buik
- Polymorph [1, 31]: bulk
- Grade (SEM, visual inspection) [2, 4]: 5
- Grade (SEM, visual inspection) [2, 5]: 5
- Grade (SEM, visual inspection) [2, 6]: 5
- Grade (SEM, visual inspection) [2, 7]: 5
- Grade (SEM, visual inspection) [2, 8]: 5
- Grade (SEM, visual inspection) [2, 9]: 5
- Grade (SEM, visual inspection) [2, 10]: 5
- Grade (SEM, visual inspection) [2, 11]: 5
- Grade (SEM, visual inspection) [2, 12]: 5
- Grade (SEM, visual inspection) [2, 13]: 5
- Grade (SEM, visual inspection) [2, 14]: 3
- Grade (SEM, visual inspection) [2, 15]: 3
- Grade (SEM, visual inspection) [2, 16]: 3
- Grade (SEM, visual inspection) [2, 17]: 4
- Grade (SEM, visual inspection) [2, 18]: 3
- Grade (SEM, visual inspection) [2, 19]: 4
- Grade (SEM, visual inspection) [2, 20]: 2
- Grade (SEM, visual inspection) [2, 21]: 4
- Grade (SEM, visual inspection) [2, 22]: 2
- Grade (SEM, visual inspection) [2, 23]: 5
- Grade (SEM, visual inspection) [2, 24]: 5
- Grade (SEM, visual inspection) [2, 25]: 5
- Grade (SEM, visual inspection) [2, 26]: 5
- Grade (SEM, visual inspection) [2, 27]: 5
- Grade (SEM, visual inspection) [2, 28]: 5
- Grade (SEM, visual inspection) [2, 29]: 1
- Grade (SEM, visual inspection) [2, 30]: 1
- Grade (SEM, visual inspection) [2, 31]: 1
- Stability of nanocrystalline material over the stability study [3]: stable over the whole stability study
